{
  "source": "patent US10183058B2",
  "about": "“Method of preventing or reducing the progression of prostate cancer” (Nymox Corporation, priority 2016, dated 2019)",
  "tested_on": "prostate cancer",
  "assay": "Clinical studies in men with BPH given SEQ ID NO. 66 by intraprostatic injection; incidence of clinically or biopsy detected prostate cancer",
  "format": "in vivo, human (men)",
  "conditions": "2.5 mg intraprostatic injection; for Incidence of cancer (Gleason Grade >= 7): follow-up up to 6.5 years, compared to known expected incidence of 5-6%",
  "method": "In a series of clinical studies undertaken between 2009 and 2016 a total of 628 men with benign prostatic hyperplasia (BPH) received SEQ ID NO. 66 (Ile-Asp-Gln-Gln-Val-Leu-Ser-Arg-Ile-Lys-Leu-Glu-Ile-Lys-Arg-Cys-Leu), 2.5 mg given by intraprostatic injection into the transition zone of the prostate to treat the symptoms of BPH and were subsequently followed clinically and by laboratory testing. After intervals up to 6.5 years after injection, all available patients were followed urologically at specialized clinics with investigation of BPH symptoms and events of disease progression and safety assessments. All cases of clinically or biopsy detected prostate cancer were documented. The incidence of new biopsy or surgically proven prostate cancer after 12 months and overall was compared to the incidence of detected prostate cancer in large long-term clinical trials in the medical literature. Although a) the treatments were for BPH; b) the injections were directed at the central part of the prostate where cancer is less common; and c) the injections consisted of only a single or two injection(s) of SEQ ID NO. […]\nIn a series of clinical studies undertaken between 2009 and 2016, a total of 816 men with benign prostatic hyperplasia (BPH) received SEQ ID NO. […] All cases of clinically or biopsy detected prostate cancer were documented. The incidence of new biopsy or surgically proven prostate cancer after 12 months and overall was compared to the incidence of detected prostate cancer in the patients receiving the sterile saline solution (control). […]\nIn a series of clinical studies undertaken between 2009 and 2016 a total of 628 men with benign prostatic hyperplasia (BPH) received SEQ ID NO. […] All cases of clinically or biopsy detected prostate cancer were documented. The incidence of new biopsy or surgically proven prostate cancer of Gleason Grade>=7 was compared to the incidence of detected prostate cancer in large long-term clinical trials in the medical literature. […]",
  "note": "Ends that are not written are not given here.",
  "data": [
    {"sequence": "IDQQVLSRIKLEIKRCL [SEQ ID NO: 66]", "values": [
      {"measurement": "incidence of prostate cancer (after 12 months and overall)", "setting": "compared to known expected incidence of 2-25%", "result": "0-1.3%"},
      {"measurement": "Incidence of cancer (Gleason Grade >= 7)", "result": "<0.3", "unit": "%"},
      {"measurement": "Incidence of cancer (Gleason Grade >= 7)", "setting": "listed as SEQ ID NO. 66", "result": "< 0.3", "unit": "%"}
    ]}
  ]
}
